Assay [1] concerns TNFα production in human whole blood. Briefly: Human Whole Blood test: inhibition of LPS-stimulated TNFα production. The assay is classed as cell-based. As for the experimental part:
The ability of the compounds of this invention to inhibit TNFα production was also assessed in a human whole blood assay. Human whole blood secretes TNFα when stimulated with LPS. This property of blood forms the basis of an assay which is used as a secondary test for compounds which profile as active in the PBMC test.
Heparinised (10 units/ml) human blood was obtained from volunteers. 160 μl whole blood were added to 96 well round-bottom plates (Corning 25850). Compounds were solubilised and serially diluted in RPMI 1640 medium (Gibco) supplemented with 50 units/ml penicillin, 50 μg/ml streptomycin and 2 mM glutamine, as detailed above. 20 μl of each test concentration was added to appropriate wells (triplicate cultures). 20 μl of RPMI 1640 medium supplemented with antibiotics and glutamine was added to control wells. Plates were incubated for 30 minutes at 37° C. (humidified incubator), prior to addition of 20 μl LPS (final concentration 10 μg/ml). RPMI 1640 medium was added to control wells. Six “LPS alone” and four “medium alone” controls were included on each plate. A known TNFα synthesis/secretion inhibitor was included in each test. Plates were incubated for 6 hours at 37° C. (humidified incubator). […] TNFα levels were measured by ELISA (see WO92/10190 and Current Protocols in Molecular Biology, vol 2 by Frederick M. Ausbel et al., John Wiley and Sons Inc.). […]

Assay [2] deals with T1, p38α (Homo sapiens, UniProt Q16539).
T1 construct: c-myc (N); 6His (N); made in house; host or cells: E. coli (PET vectors)
Description: In vitro enzyme assay, p38α. In kind it is biochemical. The note with it: read-out: IC50 against p38α. Here is the method: The ability of compounds of the invention to inhibit the enzyme p38 kinase was assessed. Activity of test compounds against each of the p38α and p38β isoforms of the enzyme was determined. […]
Test compounds were solubilised in DMSO and 10 μl of a 1:10 diluted sample in ‘Kinase Buffer’ was added to a well in a Microtiter plate. […] The precipitated protein was phosphorylated by p38 kinase and test compounds were assessed for their ability to inhibit this phosphorylation. The plates were filtered using a Canberra Packard Unifilter and washed with 2% TCA, dried overnight and counted on a Top Count scintillation counter.
Test compounds were tested initially at a single dose and active compounds were retested to allow IC50 values to be determined.

T1 sequence (Q16539 whole entry): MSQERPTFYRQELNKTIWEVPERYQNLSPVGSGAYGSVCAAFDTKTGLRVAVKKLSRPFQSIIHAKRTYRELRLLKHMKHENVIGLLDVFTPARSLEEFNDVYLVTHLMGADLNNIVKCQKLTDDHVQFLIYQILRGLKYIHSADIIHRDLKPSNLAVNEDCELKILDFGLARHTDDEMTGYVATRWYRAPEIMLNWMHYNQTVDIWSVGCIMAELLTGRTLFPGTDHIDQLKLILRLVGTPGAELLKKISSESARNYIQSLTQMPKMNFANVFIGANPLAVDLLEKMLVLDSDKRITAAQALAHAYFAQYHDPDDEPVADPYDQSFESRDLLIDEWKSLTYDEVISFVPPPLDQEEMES

By IC50 is commonly meant the concentration at which inhibition is half-maximal. Take `CN(C)CCCN(C)c1ccc(NC(=O)c2cc(NC(=O)c3ccnc(N4CCOCC4)c3)ccc2Cl)cn1` [N-{6-[N-(3-dimethylaminopropyl)-N-methylamino]pyrid-3-yl}-2-chloro-5-(2-morpholinopyrid-4-ylcarbonylamino)benzamide]: the IC50 in assay [1] is approximately 5000 nM; in assay [2], approximately 50 nM.

(Values after patent publication US6794380B2, “Amide derivatives” (AstraZeneca AB, priority 1999, dated 2004).)
